Source: publication PMC7213079, “Hit Identification of New Potent PqsR Antagonists as Inhibitors of Quorum Sensing in Planktonic and Biofilm Grown Pseudomonas aeruginosa” (Frontiers in Chemistry, 2020)

Tested on: PA14 mCTX::PpqsA-lux
Assay: PpqsA-lux bioreporter assay, strain PA14
Assay type: cell-based, Pseudomonas aeruginosa
Settings: Pseudomonas aeruginosa, PA14, read-out: IC50 PA14
Excerpt: To inform the structural variation of 7, crystal structures with the endogenous ligand [4-hydroxy-2-heptylquinoline (NHQ)] and the inhibitor M64 were used (Ilangovan et al., [2013]; Kitao et al., [2018]). The PqsR LBD is dominated by lipophilic interactions, therefore the current SAR exploration mainly focused on varying the aromatic tail substituents and examining the effect of 8-position substitution. The rationale for these modifications was primarily based on molecular docking studies that provided insights into the mode of binding of 7 and approaches intended to improve potency. The substituent at the para- position of the aromatic ring appeared to be crucial for biological activity due to the vital π-π stacking interaction of this group with Tyr^258. […] These strains emit light upon activation of PqsR by the endogenous production of these signal molecules. […] The results of the SAR in this assay highlight the importance of testing any prospective anti-virulence strategy on multiple genetically distinct P. aeruginosa strains as a means to reduce the chance of failure at both pre-clinical and clinical stages (Freschi et al., [2015]). […]
PA14 mCTX::PpqsA-lux PA14 with chromosomal mini-CTX::PpqsA-lux (Soukarieh insertion; TcR et al., 2018) […]
mini-CTX::PpqsA-lux R6K-based mini-CTX suicide plasmid for the (Diggle et chromosomal insertion of a PpqsA-lux al., 2007) transcriptional reporter fusion; TcR
Biosensor reporter assay:
Strains PA14 mCTX::PpqsA-lux and PAO1-L mCTX::PpqsA-lux were constructed using plasmid mini-CTX::PpqsA-lux as previously described (Diggle et al., 2007) and the assay was performed according to published procedures (Fletcher et al., 2007). For screening, the compounds were tested at 10 µM concentration which was prepared from 10 mM stock in DMSO. […]

**Q.** With Cn1c2ccccc2c2nnc(SCC(=O)Nc3ccc(Oc4ccccn4)cc3)nc21 [Compound 40, 2-((5-Methyl-5H-[1,2,4]triazino[5,6-b]indol-3-yl)thio)-N-(4-(pyridin-2-yloxy)phenyl)acetamide] as the compound, how does the IC50 read?
**A.** 340 ± 30 nM
